The text below walks through data of patent publication US8653100B2 (AbbVie Inc., priority 2008, dated 2014).

Broadly, the IC50 is the point on the concentration scale where inhibition reaches its midpoint.

Molecules are shown by their SMILES. Counter-ions that a name gives are not always drawn.

human GlyT1c, sequence (P48067 whole entry): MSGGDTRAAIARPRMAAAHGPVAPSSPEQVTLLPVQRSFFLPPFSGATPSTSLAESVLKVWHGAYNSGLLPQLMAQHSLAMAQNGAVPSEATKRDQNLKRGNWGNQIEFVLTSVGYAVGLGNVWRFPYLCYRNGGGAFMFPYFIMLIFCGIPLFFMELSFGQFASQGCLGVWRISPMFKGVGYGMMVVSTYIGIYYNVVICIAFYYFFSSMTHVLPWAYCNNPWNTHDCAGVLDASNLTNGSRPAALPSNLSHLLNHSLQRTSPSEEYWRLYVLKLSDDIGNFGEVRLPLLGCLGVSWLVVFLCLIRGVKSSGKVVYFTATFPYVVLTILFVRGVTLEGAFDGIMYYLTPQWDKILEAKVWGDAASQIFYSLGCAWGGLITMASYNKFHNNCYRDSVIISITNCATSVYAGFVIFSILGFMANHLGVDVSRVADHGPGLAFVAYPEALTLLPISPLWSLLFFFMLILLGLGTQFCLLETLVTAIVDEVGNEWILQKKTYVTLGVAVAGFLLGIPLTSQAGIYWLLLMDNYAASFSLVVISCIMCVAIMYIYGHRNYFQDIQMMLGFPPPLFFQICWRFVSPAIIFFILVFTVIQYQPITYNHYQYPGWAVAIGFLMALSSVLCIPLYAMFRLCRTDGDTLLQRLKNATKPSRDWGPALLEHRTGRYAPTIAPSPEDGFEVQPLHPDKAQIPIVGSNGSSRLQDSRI
human GlyT1c transporter, sequence (P48067 whole entry): as above

The target in one assay is human GlyT1c transporter (Homo sapiens (Human), UniProt P48067). Briefly: Radioligand binding assay using recombinant CHO cell membranes expressing human GlyT1. The conditions noted are these: examples 88-204, radioligand not specified by footnote, read-out: radioligand binding Kiapp. Summed up:
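Apparent Ki values were derived by Cheng-Prusoff from one-site IC50 fits of displacement curves. Membranes from recombinant CHO cells (human GlyT1c, 50 μg/ml) were incubated 1 h at room temperature with 0.5 nM [^3H]-(R)-NPTS and test compound (1% DMSO, pH 7.5 buffer), with 10 μM Org24598 for non-specific binding, then filtered and counted.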
Regarding `NC(=O)Nc1ccc(S(=O)(=O)NCCOc2ccc3c(c2)C(C2(c4ccc(Cl)cc4)CCC2)NCC3)cc1` (stereo not shown) [Example 191, 4-(Carbamoylamino)-N-[2-({1-[1-(4-chlorophenyl)cyclobutyl]-1,2,3,4-tetrahydroisoquinolin-7-yl}oxy)ethyl]benzenesulfonamide hydrochloride], the Ki was at most 10 µM.

`O=S(=O)(NCCOc1ccc2c(c1)C(C1(c3ccc(Cl)cc3)CCC1)NCC2)c1ncn[nH]1` (stereo not shown) [Example 199, N-[2-({1-[1-(4-Chlorophenyl)cyclobutyl]-1,2,3,4-tetrahydroisoquinolin-7-yl}oxy)ethyl]-1H-1,2,4-triazole-5-sulfonamide]: the Ki was at most 10 µM.

As for `Nc1n[nH]c(S(=O)(=O)NCCOc2ccc3c(c2)C(C2(c4ccc(Cl)cc4)CCC2)NCC3)n1` (stereo not shown) [Example 203, 3-Amino-N-[2-({1-[1-(4-chlorophenyl)cyclobutyl]-1,2,3,4-tetrahydroisoquinolin-7-yl}oxy)ethyl]-1H-1,2,4-triazole-5-sulfonamide dihydrochloride], the Ki was at most 100 µM.

As to `O=S(=O)(NCCOc1ccc2c(c1)C(C1(c3ccc(Cl)cc3)CCC1)NCC2)c1ncn[nH]1` (stereo not shown) [Example 204, N-[2-({1-[1-(4-Chlorophenyl)cyclobutyl]-1,2,3,4-tetrahydroisoquinolin-7-yl}oxy)ethyl]-1H-1,2,4-triazole-5-sulfonamide], the Ki is at most 100 µM.

For a further assay, the target named is human GlyT1c (Homo sapiens (Human), UniProt P48067). Put plainly: [3H]-Glycine uptake into recombinant CHO cells expressing human GlyT1. The format is cell-based. The conditions noted are these: hGlyT1c_5_CHO cells, 200 nM [3H]-glycine. As to the method:
[^3H]-Glycine uptake into recombinant CHO cells expressing human GlyT1: Human GlyT1c expressing recombinant hGlyT1c—5_CHO cells were plated at 20,000 cells per well in 96 well Cytostar-T scintillation microplates (Amersham Biosciences) and cultured to sub-confluency for 24 h. […] The plates were placed in a Wallac Microbeta (PerkinElmer) and continuously counted by solid phase scintillation spectrometry during up to 3 hours. […] IC50 calculations were made by four-parametric logistic nonlinear regression analysis (GraphPad Prism) using determinations within the range of linear increase of [^3H]-glycine incorporation between 60 and 120 min.
Consider `O=C(NCCOc1ccc2c(c1)C(C1(c3ccc(Cl)cc3)CCC1)NCC2)c1ccccc1` (stereo not shown) [Example 3, N-(2-{1-[1-(4-Chloro-phenyl)-cyclobutyl]-1,2,3,4-tetrahydro-isoquinolin-7-yloxy}-ethyl)-benzamide], for which the IC50 was at most 10 µM.

As to `CC(C)C(=O)NCCOc1ccc2c(c1)C(C1(c3ccc(Cl)cc3)CCC1)NCC2` (stereo not shown) [Example 5, N-(2-{1-[1-(4-Chloro-phenyl)-cyclobutyl]-1,2,3,4-tetrahydro-isoquinolin-7-yloxy}-ethyl)-isobutyramide], the IC50 was at most 100 µM.

With `CC(=O)NCCOc1ccc2c(c1)C(C1(c3ccc(Cl)cc3)CCC1)NCC2` (stereo not shown) [Example 6, N-(2-{1-[1-(4-Chloro-phenyl)-cyclobutyl]-1,2,3,4-tetrahydro-isoquinolin-7-yloxy}-ethyl)-acetamide], the IC50 was at most 10 µM.

Consider `CCCNC(=O)NCCOc1ccc2c(c1)C(C1(c3ccc(Cl)cc3)CCC1)NCC2` (stereo not shown) [Example 33, 1-(2-{1-[1-(4-Chloro-phenyl)-cyclobutyl]-1,2,3,4-tetrahydro-isoquinolin-7-yloxy}-ethyl)-3-propyl-urea hydrochloride], for which the IC50 was at most 10 µM.

Take `O=C(NCCOc1ccc2c(c1)C(C1(c3ccc(Cl)cc3)CCC1)NCC2)Nc1ccccc1` (stereo not shown) [Example 34, hydrochloride]: the IC50 was at most 10 µM.

For the compound `Cc1nn(C)cc1S(=O)(=O)NCCOc1ccc2c(c1)C(C1(c3ccc(Cl)cc3)CCC1)NCC2` (stereo not shown) [Example 35, 1,3-Dimethyl-1H-pyrazole-4-sulfonic acid (2-{1-[1-(4-chloro-phenyl)-cyclobutyl]-1,2,3,4-tetrahydro-isoquinolin-7-yloxy}-ethyl)-amide hydrochloride], the IC50 was at most 1 µM.

For the compound `CC(C)NC(=O)NCCOc1ccc2c(c1)C(C1(c3ccc(Cl)cc3)CCC1)NCC2` (stereo not shown) [Example 36, 1-(2-{1-[1-(4-Chloro-phenyl)-cyclobutyl]-1,2,3,4-tetrahydro-isoquinolin-7-yloxy}-ethyl)-3-isopropyl-urea hydrochloride], the IC50 is at most 100 µM.

Regarding `Cn1cc(S(=O)(=O)NCCOc2ccc3c(c2)C(C2(c4ccc(Cl)cc4)CCC2)NCC3)cn1` (stereo not shown) [Example 37, 1-Methyl-1H-pyrazole-4-sulfonic acid (2-{1-[1-(4-chloro-phenyl)-cyclobutyl]-1,2,3,4-tetrahydro-isoquinolin-7-yloxy}-ethyl)-amide hydrochloride], the IC50 is at most 0.1 µM.

For the compound `CC(C)S(=O)(=O)NCCOc1ccc2c(c1)C(C1(c3ccc(Cl)cc3)CCC1)NCC2` (stereo not shown) [Example 38, Propane-2-sulfonic acid (2-{1-[1-(4-chloro-phenyl)-cyclobutyl]-1,2,3,4-tetrahydro-isoquinolin-7-yloxy}-ethyl)-amide hydrochloride], the IC50 is at most 0.1 µM.
